Assay results reported in the supplement of paper PMC10307832.

Tests used:
Assay in all cases: relative viability (nuclei count vs DMSO), 5 days (fraction); higher = more cells survive
Bortezomib + Pictilisib = compound: CC(C)C[C@H](NC(=O)[C@H](Cc1ccccc1)NC(=O)c1cnccn1)B(O)O [Bortezomib] + CS(=O)(=O)N1CCN(Cc2cc3nc(-c4cccc5[nH]ncc45)nc(N4CCOCC4)c3s2)CC1 [Pictilisib] (partner 1 µM)
In short: (§1)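 Five library-drug doses in √10 steps were combined with a fixed anchor-drug dose, or a single drug was given alone, by pin tool to lung cancer cell lines in 1536-well plates the day after seeding. Nuclei were stained and counted after 5 days. Relative viability is the nuclei count in treated wells over that in vehicle wells, taken as the median of duplicate plates.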

[1] = compound: CC1=CC(=NN1)NC2=CC(=NC(=N2)/C=C/C3=CC=CC=C3)N4CCN(CC4)C + NC(=O)Nc1cc(-c2cccc(F)c2)sc1C(=O)N[C@H]1CCCNC1 [AZD7762] (partner 0.2 µM)
In short: as §1

Bortezomib + Palbociclib = compound: CC(C)C[C@H](NC(=O)[C@H](Cc1ccccc1)NC(=O)c1cnccn1)B(O)O [Bortezomib] + CC(=O)c1c(C)c2cnc(Nc3ccc(N4CCNCC4)cn3)nc2n(C2CCCC2)c1=O [Palbociclib] (partner 0.5 µM)
In short: as §1

[2] = compound: CC1=CC(=NN1)NC2=CC(=NC(=N2)/C=C/C3=CC=CC=C3)N4CCN(CC4)C + CC(C)C[C@H](NC(=O)[C@H](Cc1ccccc1)NC(=O)c1cnccn1)B(O)O [Bortezomib] (partner 0.002 µM)
In short: as §1

NCI-H650 gave a relative viability (Bortezomib + Pictilisib; first compound 0.000632 µM) of 0.695, a relative viability (Bortezomib + Pictilisib; first compound 0.002 µM) of 0.551 and a relative viability (Bortezomib + Pictilisib; first compound 0.006325 µM) of 0.328. For the same cell line, the relative viability (Bortezomib + Pictilisib; first compound 0.02 µM) was 0.205, the relative viability ([1]; first compound 0.08 µM) was 1.26 and the relative viability ([1]; first compound 0.253 µM) was 1.02. For the same cell line, the relative viability ([1]; first compound 0.8 µM) was 1.29, the relative viability ([1]; first compound 2.53 µM) was 0.736 and the relative viability ([1]; first compound 8 µM) was 0.187. For the same cell line, the relative viability (Bortezomib + Palbociclib; first compound 0.0002 µM) was 0.335, the relative viability (Bortezomib + Palbociclib; first compound 0.000632 µM) was 0.27 and the relative viability (Bortezomib + Palbociclib; first compound 0.002 µM) was 0.31. The relative viability (Bortezomib + Palbociclib; first compound 0.006325 µM) was 0.243, the relative viability (Bortezomib + Palbociclib; first compound 0.02 µM) was 0.149 and the relative viability ([2]; first compound 0.08 µM) was 0.839. For the same cell line, the relative viability ([2]; first compound 0.253 µM) was 1.01, the relative viability ([2]; first compound 0.8 µM) was 0.673 and the relative viability ([2]; first compound 2.53 µM) was 0.364. It also gave a relative viability ([2]; first compound 8 µM) of 0.187.
